Source: the NIST ThermoML archive (doi:10.1021/je600557n)

Key:
[1] = molar heat capacity at constant pressure; xn = mol fraction of the nth substance listed; settings: 101 kPa, Liquid, Small sample (50 mg) DSC
[2] = refractive index (Na D-line) (dimensionless); xn = mol fraction of the nth substance listed; settings: 101 kPa, Liquid, Standard Abbe refractometry
[3] = xn = mol fraction of the nth substance listed; settings: 101 kPa, Liquid

CC1CCCO1 (stereo not drawn) [2-methyltetrahydrofuran] + C[S+](C)[O-]
Settings	mass density, [3] [kg/m3]	molar heat capacity at constant pressure, [1] [J/K/mol]	refractive index, [2]	viscosity, [3] [mPa·s]
293.15 K, x2 = 0.0675	865.78	–	1.4121	0.537
293.15 K, x2 = 0.1033	–	155.2	–	–
293.15 K, x2 = 0.1168	875.28	–	1.4152	0.561
293.15 K, x2 = 0.1368	–	155.1	–	–
293.15 K, x2 = 0.2208	896.02	–	1.4215	0.631
293.15 K, x2 = 0.2714	–	155	–	–
293.15 K, x2 = 0.3228	917.54	–	1.4282	0.719
293.15 K, x2 = 0.3775	–	154.6	–	–
293.15 K, x2 = 0.4044	935.66	–	1.4336	0.78
293.15 K, x2 = 0.4694	950.78	–	1.438	0.876
293.15 K, x2 = 0.4881	–	154.2	–	–
293.15 K, x2 = 0.5058	959.5	–	1.4407	0.926
293.15 K, x2 = 0.5877	–	153.8	–	–
293.15 K, x2 = 0.5888	980.16	–	1.4468	1.047
293.15 K, x2 = 0.6274	–	153.6	–	–
293.15 K, x2 = 0.6692	1001.25	–	1.4527	1.194
293.15 K, x2 = 0.6833	–	153.2	–	–
293.15 K, x2 = 0.7448	1022.04	–	1.4589	1.354
293.15 K, x2 = 0.7593	–	152.9	–	–
293.15 K, x2 = 0.8192	1043.57	–	1.4651	1.55
293.15 K, x2 = 0.8559	–	152	–	–
293.15 K, x2 = 0.9343	–	151.2	–	–
293.15 K, x2 = 0.9523	1084.75	–	1.477	2.004
293.15 K, x2 = 0.9687	–	150.8	–	–
303.15 K, x2 = 0.0609	854.29	–	1.4055	0.468
303.15 K, x2 = 0.1033	–	158.4	–	–
303.15 K, x2 = 0.1281	867.26	–	1.4096	0.501
303.15 K, x2 = 0.1368	–	158.3	–	–
303.15 K, x2 = 0.2161	884.84	–	1.4152	0.554
303.15 K, x2 = 0.2714	–	157.7	–	–
303.15 K, x2 = 0.3184	906.38	–	1.4216	0.628
303.15 K, x2 = 0.3775	–	157.3	–	–
303.15 K, x2 = 0.4156	928.04	–	1.4281	0.71
303.15 K, x2 = 0.4881	–	156.7	–	–
303.15 K, x2 = 0.5105	950.44	–	1.4349	0.807
303.15 K, x2 = 0.5491	959.9	–	1.4378	0.852
303.15 K, x2 = 0.584	968.73	–	1.4405	0.896
303.15 K, x2 = 0.5877	–	156.1	–	–
303.15 K, x2 = 0.6274	–	155.8	–	–
303.15 K, x2 = 0.6652	989.97	–	1.4469	1.013
303.15 K, x2 = 0.6833	–	155.4	–	–
303.15 K, x2 = 0.7439	1011.62	–	1.4535	1.149
303.15 K, x2 = 0.7593	–	154.7	–	–
303.15 K, x2 = 0.8161	1032.51	–	1.4595	1.286
303.15 K, x2 = 0.8558	–	153.8	–	–
303.15 K, x2 = 0.9343	–	152.9	–	–
303.15 K, x2 = 0.9427	1071.55	–	1.4703	1.623
303.15 K, x2 = 0.9687	–	152.7	–	–
313.15 K, x2 = 0.0723	846.13	–	1.4004	0.428
313.15 K, x2 = 0.1033	–	161.5	–	–
313.15 K, x2 = 0.1209	855.52	–	1.4034	0.452
313.15 K, x2 = 0.1368	–	161.3	–	–
313.15 K, x2 = 0.2135	874.07	–	1.4093	0.497
313.15 K, x2 = 0.2714	–	160.6	–	–
313.15 K, x2 = 0.3285	898.41	–	1.4171	0.566
313.15 K, x2 = 0.3775	–	159.9	–	–
313.15 K, x2 = 0.4268	920.49	–	1.4237	0.64
313.15 K, x2 = 0.4881	–	158.9	–	–
313.15 K, x2 = 0.502	938.3	–	1.4291	0.706
313.15 K, x2 = 0.5525	950.72	–	1.433	0.751
313.15 K, x2 = 0.5877	–	158.2	–	–
313.15 K, x2 = 0.5881	959.69	–	1.4357	0.786
313.15 K, x2 = 0.6274	–	158	–	–
313.15 K, x2 = 0.6613	978.86	–	1.4415	0.872
313.15 K, x2 = 0.6833	–	157.4	–	–
313.15 K, x2 = 0.7441	1001.63	–	1.4484	0.997
313.15 K, x2 = 0.7593	–	156.7	–	–
313.15 K, x2 = 0.8488	1032.24	–	1.4572	1.162
313.15 K, x2 = 0.8558	–	155.7	–	–
313.15 K, x2 = 0.9343	–	154.5	–	–
313.15 K, x2 = 0.9474	1063.08	–	1.4666	1.374
313.15 K, x2 = 0.9687	–	154.1	–	–

C1CCOCC1 [tetrahydropyran] + C[S+](C)[O-]
Settings	mass density, [3] [kg/m3]	molar heat capacity at constant pressure, [1] [J/K/mol]	refractive index, [2]	viscosity, [3] [mPa·s]
293.15 K, x2 = 0.073	895.7	–	1.4268	0.906
293.15 K, x2 = 0.0996	–	148.8	–	–
293.15 K, x2 = 0.1171	903.11	–	1.4288	0.931
293.15 K, x2 = 0.1317	–	149.7	–	–
293.15 K, x2 = 0.2176	920.63	–	1.4336	1.005
293.15 K, x2 = 0.2636	–	153	–	–
293.15 K, x2 = 0.3108	937.76	–	1.4383	1.082
293.15 K, x2 = 0.3636	–	154.6	–	–
293.15 K, x2 = 0.4069	956.42	–	1.4433	1.173
293.15 K, x2 = 0.4832	–	155.9	–	–
293.15 K, x2 = 0.4982	975.18	–	1.4483	1.274
293.15 K, x2 = 0.5309	–	156	–	–
293.15 K, x2 = 0.5763	–	155.8	–	–
293.15 K, x2 = 0.5786	992.6	–	1.4528	1.377
293.15 K, x2 = 0.6227	1002.56	–	1.4554	1.433
293.15 K, x2 = 0.6527	1009.49	–	1.4573	1.476
293.15 K, x2 = 0.6773	–	155.5	–	–
293.15 K, x2 = 0.7338	1028.89	–	1.4624	1.605
293.15 K, x2 = 0.7586	–	154.7	–	–
293.15 K, x2 = 0.8085	1047.69	–	1.4673	1.75
293.15 K, x2 = 0.8412	–	153.7	–	–
293.15 K, x2 = 0.9237	–	152	–	–
293.15 K, x2 = 0.9321	1080.93	–	1.4761	2.022
293.15 K, x2 = 0.9579	–	151.4	–	–
303.15 K, x2 = 0.0996	–	152.5	–	–
303.15 K, x2 = 0.1175	893.4	–	1.4226	0.804
303.15 K, x2 = 0.1317	–	153.1	–	–
303.15 K, x2 = 0.2209	911.49	–	1.4275	0.865
303.15 K, x2 = 0.2636	–	155	–	–
303.15 K, x2 = 0.3113	928.13	–	1.4322	0.925
303.15 K, x2 = 0.3636	–	156.1	–	–
303.15 K, x2 = 0.411	947.52	–	1.4375	1.001
303.15 K, x2 = 0.4832	–	156.6	–	–
303.15 K, x2 = 0.4945	964.64	–	1.4422	1.078
303.15 K, x2 = 0.5309	–	156.8	–	–
303.15 K, x2 = 0.5341	973.08	–	1.4444	1.112
303.15 K, x2 = 0.5763	–	156.5	–	–
303.15 K, x2 = 0.5869	984.64	–	1.4477	1.168
303.15 K, x2 = 0.6597	1001.27	–	1.4522	1.25
303.15 K, x2 = 0.6773	–	156	–	–
303.15 K, x2 = 0.7348	1019.24	–	1.4571	1.345
303.15 K, x2 = 0.7586	–	155.5	–	–
303.15 K, x2 = 0.8105	1038.27	–	1.4621	1.453
303.15 K, x2 = 0.8412	–	154.6	–	–
303.15 K, x2 = 0.876	1055.53	–	1.4666	1.563
303.15 K, x2 = 0.9237	–	153.2	–	–
303.15 K, x2 = 0.9393	1072.96	–	1.471	1.679
303.15 K, x2 = 0.9579	–	152.9	–	–
313.15 K, x2 = 0.07165	875.38	–	1.4152	0.681
313.15 K, x2 = 0.0996	–	157.1	–	–
313.15 K, x2 = 0.1195	883.44	–	1.4173	0.701
313.15 K, x2 = 0.1317	–	157.7	–	–
313.15 K, x2 = 0.2128	899.76	–	1.422	0.745
313.15 K, x2 = 0.2636	–	159.3	–	–
313.15 K, x2 = 0.3143	918.44	–	1.4272	0.803
313.15 K, x2 = 0.3636	–	160	–	–
313.15 K, x2 = 0.4102	937.09	–	1.4323	0.863
313.15 K, x2 = 0.4832	–	160.5	–	–
313.15 K, x2 = 0.4969	954.93	–	1.4375	0.927
313.15 K, x2 = 0.5309	–	160.3	–	–
313.15 K, x2 = 0.5311	962.23	–	1.4394	0.953
313.15 K, x2 = 0.5763	–	160.1	–	–
313.15 K, x2 = 0.5865	974.36	–	1.4429	0.997
313.15 K, x2 = 0.6595	991.06	–	1.4474	1.063
313.15 K, x2 = 0.6773	–	159.3	–	–
313.15 K, x2 = 0.7295	1007.8	–	1.452	1.136
313.15 K, x2 = 0.7586	–	158.5	–	–
313.15 K, x2 = 0.8349	1034.54	–	1.4592	1.26
313.15 K, x2 = 0.8412	–	157.3	–	–
313.15 K, x2 = 0.9237	–	155.8	–	–
313.15 K, x2 = 0.938	1062.5	–	1.4663	1.405
313.15 K, x2 = 0.9579	–	155.1	–	–
